PMC11249637, “Interaction of the Atypical Tetracyclines Chelocardin and Amidochelocardin with Renal Drug Transporters” (ACS Pharmacology & Translational Science, 2024)

Biological target: T1, mOat3 (Mus musculus, UniProt O88909)
T1 construct: expressed in transfected cells; host or cells: HEK293
T1 sequence (O88909 1-537): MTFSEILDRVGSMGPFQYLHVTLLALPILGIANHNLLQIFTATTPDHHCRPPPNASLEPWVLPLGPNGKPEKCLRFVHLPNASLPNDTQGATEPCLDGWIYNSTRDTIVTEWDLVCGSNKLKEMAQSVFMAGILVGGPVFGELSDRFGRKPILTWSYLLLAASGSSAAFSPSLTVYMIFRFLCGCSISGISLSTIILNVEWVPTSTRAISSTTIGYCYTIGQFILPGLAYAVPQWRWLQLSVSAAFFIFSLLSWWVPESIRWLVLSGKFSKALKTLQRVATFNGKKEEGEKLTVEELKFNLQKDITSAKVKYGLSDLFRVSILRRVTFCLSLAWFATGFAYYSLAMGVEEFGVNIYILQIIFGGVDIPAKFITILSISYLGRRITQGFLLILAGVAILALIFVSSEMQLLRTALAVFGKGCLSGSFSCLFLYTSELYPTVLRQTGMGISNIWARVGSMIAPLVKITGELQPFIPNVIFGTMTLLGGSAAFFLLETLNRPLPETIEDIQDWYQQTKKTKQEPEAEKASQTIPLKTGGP
Experiment: Three-point uptake (substrate assessment) in mOat3-overexpressing HEK293 cells
Format: in vitro ADME
Description: This is important to gain a better understanding of the underlying mechanisms of secretion into urine. Therefore, we assessed the amount of compound taken up by the vector and transporter cells at three different concentrations (1, 10, and 100 μM for mOat1 and mOct1; 0.1, 1, and 10 μM for mOat3) and at two different incubation periods (1 and 5 min for mOat1 and mOct1; 5 and 10 min for mOat3).
The incubation buffer contained CHD and CDCHD in a final concentration of 0.1, 1, and 10 μM. After 5 and 10 min, the incubation was terminated. In addition, the probe inhibitor probenecid (100 μM) was added in one concentration to 10 μM CHD and CDCHD, respectively, and after 5 and 10 min, the incubation was stopped. Inhibition of mOat3-mediated ^3H-ES (1 μM) uptake by 100 μM probenecid was performed as a control experiment. After 1 min, the incubation was terminated. All experiments were conducted in triplicate.
First, a calibration curve was prepared by spiking different concentrations of CHD and CDCHD into the cell matrix. Caffeine was used as an internal standard. In addition, quality control samples (QCs) were prepared for CHD and CDCHD in a cell matrix. The following extraction procedures were used: 300 μL of acetonitrile/water (1:1) is added to the cell pellet (sample or calibration/QC sample) for 15 min at 2000 rpm on an Eppendorf MixMate vortex mixer. 10 μL of this extracted sample is used for further analysis. 10 μL of the extracted cell sample is further extracted with 25 μL of a mixture of methanol/acetonitrile (2:1) containing 12.5 ng/mL caffeine as an internal standard (on ice) for 5 min at 2000 rpm on an Eppendorf MixMate vortex mixer. […] Samples were analyzed using an Agilent 1290 Infinity II HPLC system coupled to an AB Sciex QTrap6500plus mass spectrometer. […]
For statistical testing of differences in uptake ratio or for the inhibitory effect, an ordinary one-way ANOVA test was performed using GraphPad Prism 9.5.1 software. […] Michaelis–Menten kinetics were determined using the Michaelis–Menten algorithm of GraphPad Prism 9.5.1 software. […]

| SMILES | substrate of mOat3 (in words) | Km (Michaelis–Menten fit, 0.1, 1 and 10 μM) [µM] |
| --- | --- | --- |
| Cc1ccc2c(C)c3c(c(O)c2c1O)C(=O)[C@@]1(O)C(=O)C(C(N)=O)=C(O)[C@@H](N)[C@H]1C3 [CDCHD, amidochelocardin] | is not a substrate | – |
| CC(=O)C1=C(O)[C@@H](N)[C@H]2Cc3c(c(O)c4c(O)c(C)ccc4c3C)C(=O)[C@@]2(O)C1=O [CHD, chelocardin] | is a substrate | 6.1 |
